Structures are written as SMILES.

The test system of the experiment is C57BL/6J mice. The experiment is described as follows: Behavioural circadian responses (phase shift, period, alpha, locomotor activity) after single oral administration, release into constant darkness. The experiment is classed as in vivo, mouse. On the procedure: In all studies described below, male young-adult C57BL/6J mice (4 weeks old at the beginning of experiments) were used. Animals were exposed to a light-dark cycle (LD) 12:12 (lights on from 8 h to 20 h geographical time; light intensity at 200 lux; during dark period dim red light of 5 lux) in individual cages with food and water ad libitum and temperature (22±1° C.) and humidity (55%±5%) controlled. LD cycle was represented as zeitgeber times (ZT) where ZT0 represents the lights on and ZT12 lights off. When animals were exposed to constant darkness conditions (DD), circadian times (CT) were used as time point references, where CT12 corresponds to activity onset.
It was evaluated whether there is a phase window of sensitivity to the V1a receptor antagonist trans-8-chloro-5-methyl-1-(4-pyridin-2-yloxycyclohexyl)-4,6-dihydro-[1,2,4]triazolo[4,3-a][1,4]benzodiazepine (example 1). A group of animals was treated at 2 temporal points (one during the day and one at night). Animals were exposed to LD cycle conditions (at least for 10 days) to obtain a baseline of the rhythm of locomotor activity. 4 groups were selected: (group 1) Sham manipulations, animals into which the cannula was introduced in the oral cavity without any solution delivery; (group 2) vehicle, and […] administration of the V1a receptor antagonist trans-8-chloro-5-methyl-1-(4-pyridin-2-yloxycyclohexyl)-4,6-dihydro-[1,2,4]triazolo[4,3-a][1,4]benzodiazepine (doses of 10 mg/kg and 30 mg/kg). Administrations were performed (orally) at ZT/CT12 (lights off/activity onset; sham, n=5; vehicle n=5; 10 mg/kg n=5; and 30 mg/kg n=5). After the first manipulation at ZT/CT12, animals were immediately exposed to DD conditions and remained at least for 10 days more for behavioural analysis, and then re-entrained to a 12-12 LD cycle, for a minimum of 10 days, to be re-exposed to the second experimental manipulation at ZT/CT0 (lights on/activity offset; sham, n=3; vehicle n=3; 10 mg/kg n=5; and 30 mg/kg n=5).
A new group of animals was treated at another 2 temporal points different from the previous experiment; ZT/CT6 (6 h after lights on/mid rest period; sham, n=3; vehicle n=4; and 30 mg/kg n=5) and ZT/CT18 (6 h after lights off/mid activity period; sham, n=3; vehicle n=4; and 30 mg/kg n=5). For this experiment (time points ZT/CT6 and ZT/CT18), trans-8-chloro-5-methyl-1-(4-pyridin-2-yloxycyclohexyl)-4,6-dihydro-[1,2,4]triazolo[4,3-a][1,4]benzodiazepine was administrated only at the 30 mg/kg dose. Thus, 3 groups were selected: (Group 1) Sham manipulations, (Group 2) vehicle administrations and (Group 3) trans-8-chloro-5-methyl-1-(4-pyridin-2-yloxycyclohexyl)-4,6-dihydro-[1,2,4]triazolo[4,3-a][1,4]benzodiazepine (30 mg/kg). After manipulations, animals were immediately exposed to DD conditions and remained at least for 10 days more for behavioural analysis, and then re-entrained to a 12-12 LD cycle for a minimum of 10 days.
The locomotor activity rhythms were measured using infra-red detectors on the top of the cages and/or running wheels.
Phase shifts: Phase shifts were measured by fitting two regression lines to the onsets of locomotor activity for 10 days before and 10 days after the manipulation (ClockLab; Actimetrics, Evanston, Ill., USA). A computer algorithm was used to identify the onset of the main period of daily locomotor activity (ClockLab). The data collected on the day following the manipulation (sham, vehicle or drug administration) was excluded from the line fits to ensure that the circadian phase was in steady state. Phase shift was defined as the difference (in hours) between the pre-stimulus line and the post-stimulus line. The magnitude of the phase shifts was fitted by linear regression to the onsets, considering 10 cycles before (LD) and 10 cycles after compound administration when animals were released in constant darkness (DD; Aschoff Type II procedure to evaluate phase shifts; Mrosovsky, 1996b). […]

As to `CN1Cc2cc(Cl)ccc2-n2c(nnc2[C@H]2CC[C@H](Oc3ccccn3)CC2)C1` [Example 1, trans-8-chloro-5-methyl-1-(4-pyridin-2-yloxycyclohexyl)-4,6-dihydro-[1,2,4]triazolo[4,3-a][1,4]benzodiazepine], under “10 mg/kg or 30 mg/kg oral, ZT/CT12 and ZT/CT0”, the “locomotor activity change after administration” value is recorded as “No significant locomotor activity change”. Also, the “endogenous period of locomotor activity” value (10 mg/kg or 30 mg/kg oral, ZT/CT12 and ZT/CT0, constant darkness) is recorded as “no changes”. Besides, the “endogenous period of locomotion” value (30 mg/kg oral, ZT/CT18 and ZT/CT6) is on record as “not significantly different between groups”. Also, the “alpha (duration of active period), difference between groups” value (30 mg/kg oral, ZT/CT18 or ZT/CT6) is on record as “no differences between groups were observed”; the “alpha (duration of active period), difference between groups” value (treated at ZT/CT12, 10 and 30 mg/kg oral) is “no differences between groups were observed”. For the same compound, the “behavioural phase shifts (circadian phase)” value (single administration 30 mg/kg oral, at ZT/CT18 and ZT/CT6) is given as “no significant effect on the circadian phase”. Besides, the “behavioural phase-shifts (circadian phase)” value (single oral administration, 10 mg/kg or 30 mg/kg, at ZT/CT12 and ZT/CT0) is “no effect on the circadian phase”. Besides, the “alpha increase (pre vs. post)” value (treated at ZT/CT0, 10 and 30 mg/kg oral, effect vs groups not statistically significant) was approximately 2 h.
